One assay concerns Streptococcus agalactiae. The assay can be described thus: Inhibition assay on liquid medium (OD at 600 nm). In kind it is cell-based. As to conditions: peptide at 100µM; Fig. 12. As for the experimental part: (§1) An overnight culture of the bacterial strain to be assayed was freshly inoculated to sterile LB liquid medium. After 4 hours of bacterial growth at 37°C, the medium was diluted to 1/10,000 and inoculated into sterile liquid LB or BHI medium. Peptide solution was added (1/100) to a final concentration ranging from 0.01 to 100µM and OD at 600 nm was recorded continuously using a Tecan microplate reader (Infinite® 200 PRO series).

Assay [1] deals with B. subtilis. The assay can be described thus: Inhibition assay on solid medium (plate growth inhibition). Type of assay: cell-based, Bacillus subtilis. The settings on record: 200 µg of peptide spotted, 37°C, Fig. 5A. The procedure:
An overnight culture of the bacterial strain to be assayed was freshly inoculated to sterile BHI liquid medium. After 4 hours of bacterial growth at 37°C, the medium was diluted to 1/1000 and inoculated into a soft agarose medium pre-heated at 42°C. The agarose medium containing bacteria was overlaid on a previously jellified sterile BHI agarose layer. 200 µg of peptide was spotted onto the plate and bacterial growth proceeded at 37°C.

The test system of assay [2] is B. subtilis. Kind of assay: Inhibition assay on liquid medium (OD at 600 nm). Type of assay: cell-based, Bacillus subtilis. As to conditions: for Growth of B. subtilis in liquid LB medium (bacterial growth inhibition): Fig. 5B, Fig. 8a. The procedure:
as §1

Square brackets hold non-standard residues; d marks the D form. Ends that are not written are not given here. Peptide text beside a SMILES is read from it. d(aIle) = CC[C@H](C)[C@@H](N)C(=O)O

Consider “WYFVKSQSNRWIVGSGH (SEQ ID No 65) (WYF[dV]KSQSNRW[dI]VGSGH) [Peptide-SP]”, for which the “Growth of Streptococcus agalactiae in liquid BHI medium” value with Streptococcus agalactiae was “inhibitors”.

Turning to “Ac-GLLDESQKLAKVNDLWYFVKSKENRWILGSGH (SEQ ID No 20) [YydF18-49, truncated form of YydF, residues 18 to 49, no modification (all L-amino acids)]”, the “Plate growth inhibition assay of B. subtilis” value in the assay with B. subtilis [1] is recorded as “devoid of activity”. Further, the “Growth of B. subtilis after addition of peptide at mid-exponential phase (cell density)” value in the assay with B. subtilis [2] (liquid LB medium, peptide added after 3 hours of growth, Fig. 9) was “a clear slow down followed by a decrease of the cell density”.

Turning to “YydF33-49DD: peptide of SEQ ID No 61 with the two epimerized residues D-Val36 and D-Ile44 (WYF[dV]KSKENRW[dI]LGSGH)”, the “potency relative to the YydF18-49DD peptide” value in the assay on B. subtilis [2] (B. subtilis growth ratio, Fig. 8b&c) turned out to be 100 times. Besides, in the assay with B. subtilis [2] (liquid LB medium), the “Growth of B. subtilis in liquid LB medium (bacterial growth inhibition)” value is “inhibit bacterial growth”. The “Growth of Streptococcus agalactiae in liquid BHI medium” value with Streptococcus agalactiae was “inhibited”.

Take `CC[C@H](C)[C@@H](NC(=O)[C@H](Cc1c[nH]c2ccccc12)NC(=O)[C@H](CCCNC(=N)N)NC(=O)[C@H](CC(N)=O)NC(=O)[C@H](CCC(=O)O)NC(=O)[C@H](CCCCN)NC(=O)[C@H](CO)NC(=O)[C@H](CCCCN)NC(=O)[C@H](NC(=O)[C@H](Cc1ccccc1)NC(=O)[C@H](Cc1ccc(O)cc1)NC(=O)[C@H](Cc1c[nH]c2ccccc12)NC(=O)[C@H](CC(C)C)NC(=O)[C@H](CC(=O)O)NC(=O)[C@H](CC(N)=O)NC(=O)[C@@H](NC(=O)[C@H](CCCCN)NC(=O)[C@H](C)NC(=O)[C@H](CC(C)C)NC(=O)[C@H](CCCCN)NC(=O)[C@H](CCC(N)=O)NC(=O)[C@H](CO)NC(=O)[C@H](CCC(=O)O)NC(=O)[C@H](CC(=O)O)NC(=O)[C@H](CC(C)C)NC(=O)[C@H](CC(C)C)NC(=O)CNC(C)=O)C(C)C)C(C)C)C(=O)N[C@@H](CC(C)C)C(=O)NCC(=O)N[C@@H](CO)C(=O)NCC(=O)N[C@@H](Cc1c[nH]cn1)C(=O)O` [YydF18-49DD, Ac-GLLDESQKLAKVNDLWYF{d-V}KSKENRW{d-I}LGSGH (SEQ ID No 20)] (Ac-GLLDESQKLAKVNDLWYF[dV]KSKENRW[d(aIle)]LGSGH-OH): in the assay with B. subtilis [1], the “Plate growth inhibition assay of B. subtilis” value is reported as “strong inhibition growth”. Besides, the “Growth of B. subtilis in liquid LB medium (bacterial growth inhibition)” value with B. subtilis [2] (liquid LB medium) was “bacterial growth inhibition”; in the assay on B. subtilis [2] (liquid LB medium, listed as epimerized peptide) it was “strong and persistent inhibition”.

For the origin of these results see patent EP3383888B9, “NEW PEPTIDES HAVING ANTIMICROBIAL ACTIVITY AND NEW ENZYME CAPABLE OF CONVERTING L-CONFIGURED RESIDUE IN D-CONFIGURED AMINO ACID IN A PEPTIDE” (Institut national de recherche pour l'agriculture, …, priority 2015, dated 2017).
